For test [1], the target named is T1, Histone deacetylase (Homo sapiens) (UniProt Q13547+O15379+Q9UBN7+Q92769+Q9UQL6+Q8WUI4+Q9BY41+Q96DB2+P56524+Q9UKV0+Q969S8). Description: Inhibition of HDAC in human Cal27CisR cells assessed as combination index at 0.75 uM measured in presence of 50 uM cDDP by MTT-based Chou-Talalay method. It is filed as cell-based.
In test [2] the test system is CAL-27. Description: Induction of apoptosis in human CAL-27 cells assessed as caspase 3 activation at 2 uM in presence of pretreated for 24 hrs followed by cisplatin treatment and further incubated for 18 hrs by Caspase3/7 detection reagent based assay. It is filed as functional, cell-based. The note with it: time 42.0 hrs.
Test [3] deals with CAL-27. Description: Induction of apoptosis in cisplatin resistant human CAL-27 cells assessed as caspase 7 activation at 2 uM in presence cisplatin of pretreated for 24 hrs followed by cisplatin treatment and further incubated for 18 hrs by Caspase3/7 detection reagent based assay. It is filed as functional, cell-based. The conditions noted are these: time 42.0 hrs.
Test [4] has as its target Histone deacetylase. Description: Inhibition of HDAC in human CAL-27 cells assessed as potentiation of cisplatin-induced cytotoxicity by measuring cisplatin IC50 at 2 to 3 uM pretreated for 48 hrs followed by cisplatin addition and measured after 72 hrs by MTT assay (reference value: 3.57 uM). It is filed as cell-based.
In test [5] the target is Histone deacetylase. Description: Inhibition of HDAC in human Cal27CisR cells assessed as potentiation of cisplatin-induced cytotoxicity by measuring cisplatin IC50 at 2 to 3 uM pretreated for 48 hrs followed by cisplatin addition and measured after 72 hrs by MTT assay (reference value: 3.57 uM). It is filed as cell-based. Background: Formazan colour is commonly taken as a measure of viable cells.

The target in test [6] is T1, Histone deacetylase (Homo sapiens). Description: Inhibition of HDAC in human CAL-27 cells assessed as combination index at 1.5 uM measured in presence of 5 uM cDDP by MTT-based Chou-Talalay method. Format: cell-based.
Test [7] shares this target. Description: Inhibition of HDAC in human CAL-27 cells assessed as combination index at 1.5 uM measured in presence of 10 uM cDDP by MTT-based Chou-Talalay method. Format: cell-based.
Test [8] has the same target. Description: Inhibition of HDAC in human CAL-27 cells assessed as combination index at 0.75 uM measured in presence of 10 uM cDDP by MTT-based Chou-Talalay method. Format: cell-based.
For test [9] the target is unchanged. Description: Inhibition of HDAC in human Cal27CisR cells assessed as combination index at 2 uM measured in presence of 10 uM cDDP by MTT-based Chou-Talalay method. Format: cell-based.
Test [10] has the same target. Description: Inhibition of HDAC in human CAL-27 cells assessed as combination index at 1.25 uM measured in presence of 10 uM cDDP by MTT-based Chou-Talalay method. Format: cell-based.
The next test relates to HL-60. Description: Induction of apoptosis in human HL-60 cells assessed as caspase 3/7 activation at IC75 concentration incubated at 48 hrs. It is filed as functional.
The target in test [11] is T1, Histone deacetylase (Homo sapiens). Description: Inhibition of HDAC in human CAL-27 cells assessed as combination index at 0.2 uM measured in presence of 2 uM cDDP by MTT-based Chou-Talalay method. It is filed as cell-based.

The source made the active and inactive calls. The rule behind the calls is not given here.

As to `O=C(CCCCCONC(=O)c1nccc2ccccc12)NO`, the CI in test [1] was 0.56; in test [6], 0.37; in [7], 0.21; in test [8], 0.51; in test [9], 0.58; in test [10], 0.3. For the same molecule, the result in the test with CAL-27 [2] and in the test with CAL-27 [3] was Active. Besides, the IC50 worked out at 1100 nM at Histone deacetylase [4] and 4840 nM on Histone deacetylase [5].

Take `O=C(CCCCCONC(=O)c1ccc2ccccc2n1)NO`: the IC75 with HL-60 is 320 nM.

Turning to `O=C(CCCCCONC(=O)c1cc2ccccc2[nH]1)NO`, the CI in [11] was 0.63.

As a reminder, the IC50 is the midpoint of a concentration-inhibition curve. For orientation: IC75 means the concentration at which the effect reaches the 75% level.

(Values after ChEMBL document CHEMBL4823243, “Synergistic induction of apoptosis in resistant head and neck carcinoma and leukemia by alkoxyamide-based histone deacetylase inhibitors” (Eur J Med Chem, 2021).)
